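Where inhibition never reached the appropriate level, the endpoint shown equals the highest concentration tested. Otherwise, values were interpolated linearly from a five-concentration, 48-hour dose response in 96-well plates. Abbreviation: GI50, concentration required for 50% inhibition of growth. TGI is the concentration that stops growth completely.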
Legend:
Test in all cases: inhibition of tumour cell growth, NCI panel, 48 h
MOLT-4 leukemia = tested on: MOLT-4 leukemia
UO-31 renal = tested on: UO-31 renal
HOP-92 NSCLC = tested on: HOP-92 NSCLC
MCF7 breast = tested on: MCF7 breast
NCI-H522 lung = tested on: NCI-H522 lung
CCRF-CEM leukemia = tested on: CCRF-CEM leukemia
U251 CNS = tested on: U251 CNS
HCT-15 colon = tested on: HCT-15 colon
IGROV1 ovarian = tested on: IGROV1 ovarian
KM12 colon = tested on: KM12 colon
ACHN renal = tested on: ACHN renal
NCI-H226 lung = tested on: NCI-H226 lung
M14 melanoma = tested on: M14 melanoma
MALME-3M melanoma = tested on: MALME-3M melanoma
TK-10 renal = tested on: TK-10 renal
COLO 205 colon = tested on: COLO 205 colon
HT29 colon = tested on: HT29 colon
SK-MEL-28 melanoma = tested on: SK-MEL-28 melanoma
OVCAR-5 ovarian = tested on: OVCAR-5 ovarian
MDA-MB-435 = tested on: MDA-MB-435
RPMI-8226 leukemia = tested on: RPMI-8226 leukemia
UACC-257 melanoma = tested on: UACC-257 melanoma
OVCAR-8 ovarian = tested on: OVCAR-8 ovarian
HCT-116 colon = tested on: HCT-116 colon
SF-268 CNS = tested on: SF-268 CNS
BT-549 breast = tested on: BT-549 breast
UACC-62 melanoma = tested on: UACC-62 melanoma
PC-3 prostate = tested on: PC-3 prostate
A498 renal = tested on: A498 renal

COC(=O)N1c2ccc3c(nc(Cc4ccccc4)n3[C@H]3CCC[C@H](C(=O)O)C3)c2CC[C@@H]1C
TGI (MOLT-4 leukemia): > 100 µM | GI50 (UO-31 renal): 2.87 µM | TGI (UO-31 renal): > 100 µM | GI50 (HOP-92 NSCLC): 1.62 µM | TGI (HOP-92 NSCLC): 11.8 µM | GI50 (MCF7 breast): 0.115 µM | TGI (MCF7 breast): > 100 µM | GI50 (NCI-H522 lung): 11.3 µM | TGI (NCI-H522 lung): > 100 µM | GI50 (CCRF-CEM leukemia): 6.55 µM | TGI (CCRF-CEM leukemia): > 100 µM | GI50 (U251 CNS): 17.1 µM | TGI (U251 CNS): > 100 µM | GI50 (HCT-15 colon): 16.2 µM | TGI (HCT-15 colon): > 100 µM | GI50 (IGROV1 ovarian): 20.8 µM | TGI (IGROV1 ovarian): > 100 µM | GI50 (KM12 colon): 16.4 µM | TGI (KM12 colon): > 100 µM | GI50 (ACHN renal): 17.2 µM | TGI (ACHN renal): > 100 µM | GI50 (NCI-H226 lung): 14.1 µM | TGI (NCI-H226 lung): > 100 µM | GI50 (M14 melanoma): 5.86 µM | TGI (M14 melanoma): > 100 µM | GI50 (MALME-3M melanoma): 6.13 µM | TGI (MALME-3M melanoma): > 100 µM | GI50 (TK-10 renal): 5.7 µM | TGI (TK-10 renal): > 100 µM | GI50 (COLO 205 colon): 4.95 µM | TGI (COLO 205 colon): > 100 µM | GI50 (HT29 colon): 5.44 µM | TGI (HT29 colon): > 100 µM | GI50 (SK-MEL-28 melanoma): 13.2 µM | TGI (SK-MEL-28 melanoma): > 100 µM | GI50 (OVCAR-5 ovarian): 30.9 µM | TGI (OVCAR-5 ovarian): > 100 µM | GI50 (MDA-MB-435): 8.59 µM | TGI (MDA-MB-435): > 100 µM | GI50 (RPMI-8226 leukemia): 3.84 µM | TGI (RPMI-8226 leukemia): 80.9 µM | GI50 (UACC-257 melanoma): 14.6 µM | TGI (UACC-257 melanoma): > 100 µM | GI50 (OVCAR-8 ovarian): 28.2 µM | TGI (OVCAR-8 ovarian): > 100 µM | GI50 (HCT-116 colon): 17.6 µM | TGI (HCT-116 colon): > 100 µM | GI50 (SF-268 CNS): 27.7 µM | TGI (SF-268 CNS): > 100 µM | GI50 (BT-549 breast): 48.5 µM | TGI (BT-549 breast): > 100 µM | GI50 (UACC-62 melanoma): 2.08 µM | TGI (UACC-62 melanoma): > 100 µM | GI50 (PC-3 prostate): 5.68 µM | TGI (PC-3 prostate): > 100 µM | GI50 (A498 renal): 12.4 µM | TGI (A498 renal): 52.7 µM
